Measured values: paper PMC5207512, “Inhibition of Helicobacter pylori and Its Associated Urease by Palmatine: Investigation on the Potential Mechanism” (PLoS ONE, 2017)
Values joined by “and” are separate entries in the source; they are usually repeats but may differ in a detail not shown here. Identical values can stand only once. Like-named read-outs stand apart in the source and are kept apart here.

What was measured:
H. pylori ATCC 43504 = assay: MIC by agar dilution method; type: cell-based; details: Helicobacter pylori
Method: (§1) A total of four H. pylori strains were studied, including three reference strains ATCC 43504, NCTC 26695 and SS1 gifted from Professor Richard Ferrero, Monash University, Australia, and one clinical isolate ICDC 111001 obtained from Professor Zhang Jianzhong, Chinese Center of Disease Control and Prevention. […] The MICs of Pal against the four H. pylori strains were evaluated by using agar dilution method. […] H. pylori strains were harvested and resuspended in PBS (1.0–2.0 McFarland were defined based on the strain properties). […] After 72 h, the MIC values were determined as the lowest concentration at which there was no strain growth judged by visual examination. Metronidazole was used as the positive control. The experiments were evaluated under two different pH (7.4 and 5.3) conditions and repeated twice.

H. pylori SS1 = assay: MIC by agar dilution method; type: cell-based; details: Helicobacter pylori
Method: as §1

[1] = test system: H. pylori ICDC 111001 (clinical isolate); assay: MIC by agar dilution method; type: cell-based; details: Helicobacter pylori
Method: as §1

H. pylori NCTC 26695 = assay: MIC by agar dilution method; type: cell-based; details: Helicobacter pylori
Method: as §1

H. pylori urease (HPU) [2] = target: T1, H. pylori urease (HPU) (Helicobacter pylori, UniProt P69996); assay: biochemical; details: read-out: Residual urease activity (percent of control), Fig 4A HPU, Pal 0.5 mM, thiols 1.25 mM, replicates
T1 construct: HPU was prepared as previously described; made in house
Method: (§2) For the protection with thiols-containing compounds, the mixture consisting of 0.25 mg/mL urease (HPU or JBU), 0.5 mM Pal (for both HPU and JBU) and 1.25 mM thiols (DTT, GSH and L-cys) was incubated for 5, 10, 20, and 40 min at 37°C, respectively. The control sample instead of the protectors contained a proper volume of respective buffer.

jack bean urease (JBU) [3] = target: T2, jack bean urease (JBU) (Canavalia ensiformis, UniProt P07374); assay: biochemical; details: read-out: Residual urease activity (percent of control), Fig 4B JBU, Pal 0.5 mM, thiols 1.25 mM, replicates
T2 construct: Urease from jack bean (Canavalia ensiformis, JBU); purchased Sigma-Aldrich (St Louis, MO, USA) type III (catalogue number not given)
Method: as §2

H. pylori urease (HPU) [4] = target: T1, H. pylori urease (HPU); assay: biochemical; type: biochemical; details: read-out: Residual urease activity (percent of control), Fig 5A HPU, thiols 1.25 mM, Pal 0.5 mM, 20+20 min
Method: (§3) The reaction mixture consisted of 0.25 mg/mL HPU or JBU, 0.5 mM Pal (for both HPU and JBU), and 1.25 mM thiols (DTT, GSH, or L-cys) in 20 mM HEPES buffer (pH 7.5). The components of the incubation mixture were mixed according to three procedures: (1) Urease was added to the mixture after a 20-min co-incubation of Pal with thiol. (2) Pal was added to the mixture after a 20-min co-incubation of urease with thiol. (3) Thiols were added to the mixture after a 20-min co-incubation of urease with Pal. The incubation mixture containing all components was incubated for further 20 min and the activity of urease was determined. The experiments were triply performed.

jack bean urease (JBU) [5] = target: T2, jack bean urease (JBU); assay: biochemical; type: biochemical; details: read-out: Residual urease activity (percent of control), Fig 5B JBU, thiols 1.25 mM, Pal 0.5 mM, 20+20 min
Method: as §3

H. pylori urease (HPU) [6] = target: T1, H. pylori urease (HPU); assay: biochemical; type: biochemical; details: for activity at 500 µM: read-out: Urease activity, Fig 6A HPU, Pal 0.5 mM, DTT 1.25 mM
Method: (§4) The reactivation of Pal-inactivated urease was investigated by DTT application. The preincubation mixture consisted of 0.25 mg/mL HPU or JBU and 0.5 mM Pal in 20 mM HEPES buffer (pH 7.5). Then the mixture was further incubated with 1.25 mM DTT after 20 min. The enzymatic activity of urease was determined before and after the addition of DTT. After a while, aliquots were withdrawn and the urease residual activity was determined. The experiments were repeated three times.

jack bean urease (JBU) [7] = target: T2, jack bean urease (JBU); assay: biochemical; type: biochemical; details: for activity at 500 µM: read-out: Urease activity, Fig 6B JBU, Pal 0.5 mM, DTT 1.25 mM
Method: as §4

jack bean urease (JBU) [8] = target: T2, jack bean urease (JBU); assay: biochemical; type: biochemical
Method: For the protection with inorganic compounds (BA and NaF), 0.25 mg/mL urease (HPU or JBU) was preincubated with 5 mM BA or 5 mM NaF for 20 min. Following preincubation, each sample of the protected urease was incubated with 0.5 mM Pal for 20 min. The samples containing a proper volume of respective buffer instead of Pal served as comparison with the abovementioned systems. The experiments were triply performed.

[9] = test system: four H. pylori strains (ATCC 43504, NCTC 26695, SS1 and ICDC 111001); assay: MIC by agar dilution method, range over the four strains; type: cell-based; details: Helicobacter pylori, read-out: MIC values against the four H. pylori strains
Method: as §1

T2 sequence (P07374 whole entry, looked up): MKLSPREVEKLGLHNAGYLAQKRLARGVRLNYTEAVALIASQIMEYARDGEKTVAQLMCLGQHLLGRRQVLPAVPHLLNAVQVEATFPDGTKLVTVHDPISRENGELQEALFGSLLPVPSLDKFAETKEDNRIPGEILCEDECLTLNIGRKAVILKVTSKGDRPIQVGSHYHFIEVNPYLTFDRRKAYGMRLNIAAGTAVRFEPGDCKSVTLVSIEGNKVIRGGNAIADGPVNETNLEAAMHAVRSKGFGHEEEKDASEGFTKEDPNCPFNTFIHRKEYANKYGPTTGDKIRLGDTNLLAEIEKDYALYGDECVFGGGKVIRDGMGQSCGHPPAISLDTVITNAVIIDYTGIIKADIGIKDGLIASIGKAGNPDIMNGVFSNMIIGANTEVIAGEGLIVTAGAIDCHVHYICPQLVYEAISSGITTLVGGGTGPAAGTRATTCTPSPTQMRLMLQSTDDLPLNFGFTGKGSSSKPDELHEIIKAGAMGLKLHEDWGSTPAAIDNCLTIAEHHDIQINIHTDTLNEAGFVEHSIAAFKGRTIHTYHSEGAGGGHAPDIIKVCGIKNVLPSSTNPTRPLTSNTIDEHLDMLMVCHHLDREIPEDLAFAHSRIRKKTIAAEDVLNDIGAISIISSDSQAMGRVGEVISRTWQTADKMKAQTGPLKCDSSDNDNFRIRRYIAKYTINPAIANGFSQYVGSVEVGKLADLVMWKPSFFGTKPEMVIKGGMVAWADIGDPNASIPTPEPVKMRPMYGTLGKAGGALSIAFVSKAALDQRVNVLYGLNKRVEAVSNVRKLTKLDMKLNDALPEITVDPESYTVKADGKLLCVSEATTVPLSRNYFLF
T1 sequence (P14916 whole entry): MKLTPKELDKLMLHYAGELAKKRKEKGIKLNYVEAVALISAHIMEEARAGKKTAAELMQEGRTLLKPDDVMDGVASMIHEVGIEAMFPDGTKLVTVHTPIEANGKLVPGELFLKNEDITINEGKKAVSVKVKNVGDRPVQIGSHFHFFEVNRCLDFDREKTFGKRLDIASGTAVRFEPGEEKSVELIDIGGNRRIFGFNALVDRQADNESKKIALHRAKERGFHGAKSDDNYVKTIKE
T1 sequence (P69996 whole entry): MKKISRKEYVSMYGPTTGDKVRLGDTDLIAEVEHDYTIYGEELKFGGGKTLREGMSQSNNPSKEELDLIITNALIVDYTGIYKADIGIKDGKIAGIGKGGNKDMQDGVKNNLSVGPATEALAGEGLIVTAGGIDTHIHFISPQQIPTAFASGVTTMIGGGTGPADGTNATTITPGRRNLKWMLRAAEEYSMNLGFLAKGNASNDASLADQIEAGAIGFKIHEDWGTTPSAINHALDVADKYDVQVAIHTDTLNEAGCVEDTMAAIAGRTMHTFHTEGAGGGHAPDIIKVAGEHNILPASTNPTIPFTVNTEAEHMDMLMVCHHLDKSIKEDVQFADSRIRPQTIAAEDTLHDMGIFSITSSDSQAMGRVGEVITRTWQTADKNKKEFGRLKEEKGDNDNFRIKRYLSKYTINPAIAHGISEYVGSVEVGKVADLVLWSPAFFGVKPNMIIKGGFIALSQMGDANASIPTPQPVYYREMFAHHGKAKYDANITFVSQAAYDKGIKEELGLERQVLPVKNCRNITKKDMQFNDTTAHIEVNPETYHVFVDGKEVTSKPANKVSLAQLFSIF

Molecule `COc1cc2c(cc1OC)-c1cc3ccc(OC)c(OC)c3c[n+]1CC2` [Pal, Palmatine] has an MIC (H. pylori ATCC 43504; ATCC43504, pH 5.3, 72 h) of 75 µg/mL, an MIC (H. pylori ATCC 43504; ATCC43504, pH 7.4, 72 h) of 100 µg/mL and an MIC (H. pylori SS1; pH 5.3, 72 h) of 75 µg/mL. It also gave an MIC (H. pylori SS1; pH 7.4, 72 h) of 100 µg/mL, an MIC ([1]; pH 5.3, 72 h) of 75 µg/mL and an MIC ([1]; pH 7.4, 72 h) of 100 µg/mL. The MIC (H. pylori NCTC 26695; NCTC26695, pH 5.3, 72 h) was 100 µg/mL, the MIC (H. pylori NCTC 26695; NCTC26695, pH 7.4, 72 h) was 200 µg/mL and the remaining activity at 500 µM (H. pylori urease (HPU) [2]; 5 min incubation) was 68.6%. The remaining activity at 500 µM (H. pylori urease (HPU) [2]; 10 min incubation) was 62.4%, the remaining activity at 500 µM (H. pylori urease (HPU) [2]; 20 min incubation) was 40.4% and the remaining activity at 500 µM (H. pylori urease (HPU) [2]; 40 min incubation) was 24.2%. For the same molecule, the remaining activity at 500 µM (jack bean urease (JBU) [3]; 5 min incubation) was 30.8%, the remaining activity at 500 µM (jack bean urease (JBU) [3]; 10 min incubation) was 35.2% and the remaining activity at 500 µM (jack bean urease (JBU) [3]; 20 min incubation) was 34.3%. It also gave a remaining activity at 500 µM (jack bean urease (JBU) [3]; 40 min incubation) of 32.7%, a remaining activity at 500 µM (H. pylori urease (HPU) [4]; order (Protector+Pal)+urease) of 19.8% and a remaining activity at 500 µM (H. pylori urease (HPU) [4]; order (urease+Pal)+Protector) of 20%. It also gave a remaining activity at 500 µM (H. pylori urease (HPU) [4]; order (urease+Protector)+Pal) of 16.7%, a remaining activity at 500 µM (jack bean urease (JBU) [5]; order (Protector+Pal)+urease) of 43.3% and a remaining activity at 500 µM (jack bean urease (JBU) [5]; order (urease+Pal)+Protector) of 38%. The remaining activity at 500 µM (jack bean urease (JBU) [5]; order (urease+Protector)+Pal) was 35.4%, the activity at 500 µM (H. pylori urease (HPU) [6]; 5 min, incubation time 5 min) was 54% and the activity at 500 µM (H. pylori urease (HPU) [6]; 10 min, incubation time 10 min) was 49.3%. The activity at 500 µM (H. pylori urease (HPU) [6]; 0.25 h, incubation time 15 min) was 49.3%, the activity at 500 µM (H. pylori urease (HPU) [6]; 20 min, incubation time 20 min) was 31.8% and the reversibility of inhibition (H. pylori urease (HPU) [6]; HPU, DTT reactivation assay) was “reversible”. For the same molecule, the activity at 500 µM (jack bean urease (JBU) [7]; 5 min, incubation time 5 min) was 32.2%, the activity at 500 µM (jack bean urease (JBU) [7]; 10 min, incubation time 10 min) was 20.5% and the activity at 500 µM (jack bean urease (JBU) [7]; 0.25 h, incubation time 15 min) was 21.6%. The activity at 500 µM (jack bean urease (JBU) [7]; 20 min, incubation time 20 min) was 30.9%, the reversibility of inhibition (jack bean urease (JBU) [7]; JBU, DTT reactivation assay) was “reversible” and the “Residual urease activity (percent of control)” value (jack bean urease (JBU) [8]; Fig 4D JBU, BA or NaF 5 mM preincubated 20 min, Pal 0.5 mM 20 min) was 36.6919% and 36.1251%. The “activity of enzyme inactivated by Pal in the presence of BA” value (jack bean urease (JBU) [8]; JBU, 5 mM BA + 0.5 mM Pal, mean) was 33.08%, the “activity of enzyme inactivated by Pal in the presence of NaF” value (jack bean urease (JBU) [8]; JBU, 5 mM NaF + 0.5 mM Pal, mean) was 19.91% and the remaining activity at 500 µM (jack bean urease (JBU) [8]; read-out: Residual urease activity (percent of control), Fig 4D JBU, BA or NaF 5 mM preincubated 20 min, Pal 0.5 mM 20 min) was 35.2%. The MIC ([9]; acidic conditions (pH 5.3)) was 75 to 100 µg/mL and the MIC ([9]; neutral conditions (pH 7.4)) was 100 to 200 µg/mL.
